Drawing on a melting point compilation (Tetko et al.; mined from patent text by program, amines drawn as free bases though some values may be those of a salt), this text covers melting point for 85 compounds.

For the compound `CCCCC1(CCCC)CS(=O)(=O)c2ccc(N(C)C)cc2[C@@H](c2ccc(OCc3cccc(CCC(=O)O)n3)cc2)[C@H]1O`, the melting point (in general, the temperature of the solid-liquid transition) is 105 to 107 °C. Then `COc1ccc(CC2CCN(C(=O)NC(=O)c3ccc(O)cc3)CC2)cc1`, with 190 °C. In the case of `COc1ccc(C=C(C=O)C(C=O)=Cc2ccc(OC)c(OC)c2)cc1OC`, the melting point lay in the range of 149 to 150 °C. With `CS(=O)(=O)Nc1cc(C(c2cc(C#N)ccc2F)S(=O)(=O)c2ccc(Cl)cc2)c(Cl)cn1` (stereo not given), the melting point is 118 to 120 °C. The figure for `ClC1=NC(Cl)(C(Cl)(Cl)Cl)N=C1Cl` is 66 to 68 °C. On to `CCCN(CCC)c1nc2cc3c(cc2s1)CC(N)C3` (stereo not given), for which the melting point is 127 to 128 °C. `N#Cc1cccc(C(=O)NCc2cccc3c2CN(C2CCC(=O)NC2=O)C3=O)c1` (stereo not given) returned a melting point of 282 to 284 °C. Then `N#CCOc1ccc2cc(CNC(=O)c3cc4ccccc4o3)ccc2c1`, with 138 to 139 °C; and `OC1CC2(CCCC2)Oc2ccc(Br)cc21` (stereo not given), with 123 to 124 °C; and `CC(=O)C1=C(O)C(C(=O)C=Cc2ccccc2)C(=O)OC1=O` (stereo not given), with 154 to 155 °C. Then `COc1ccc(C(C)(C)C)cc1S(=O)(=O)Cl`, with 75 to 77 °C; and `CC(C)CN1C(=O)C2CC2(c2ccc(N)cc2)C1=O` (stereo not given), with 100 to 101 °C; and `Nc1cccc(-c2nc3n(n2)Cc2ccccc2-3)c1`, with 163 to 164 °C. Then `CCCOC(=Nc1sc(Cl)cc1C#N)OCCC`, with 55 to 57 °C; and `CN1C(=O)CCN(c2ccc(Cl)cc2Cl)C1=O`, with 154 to 157 °C.

`COC(=O)c1cc(OCc2ccccc2)nn1C(C)C`: the melting point lay in the range of 73 to 74 °C. `CC(=O)NCCC1(C[N+](=O)[O-])CCCCC1` yielded a melting point of 68 to 70 °C. In the case of `Cc1cc2oc(=O)c3c(c2cc1Cl)CCNC3`, the melting point lay within 184 to 185 °C. Compound `CN1CCN(c2cccc3c2C[C@H](NC(=O)c2ccc(C(F)(F)F)cc2)CO3)CC1` returned a melting point of 212 to 214 °C. Take `CC1CC=C(Nc2ccc(Br)cc2)c2ncc(C(=O)O)c(=O)n21` (stereo not given): the melting point is 202 to 204 °C.

Compound `CC(=O)Nc1c(C(=O)c2cccc(C(=O)O)c2)[nH]c2cc(Cl)ccc12` yielded a melting point of more than 290 °C. In turn, `COc1cc2c(cc1Nc1ncc(Cl)c(Nc3ccc(N(C)C)cc3S(=O)(=O)C(C)C)n1)CCN(CC(=O)N(C)C)CC2` showed a melting point of 81 to 93 °C. Then `COc1ccccc1-c1c(C)c(C)c2cnc(Nc3ccc(N4CCOCC4)cc3)nn12`, with 169 to 172 °C; and `C#Cc1ccccc1-c1ccc(I)cc1`, with 114 °C; and `Cc1cc(N2CCN(CC(=O)c3ccc(NS(C)(=O)=O)cc3)CC2)ccn1`, with 93 to 94 °C. For `OCCCCCCCCCCCOc1ccc(-c2nc(-c3ccccc3)nc(-c3ccc(OCCCCCCCCCCCO)cc3O)n2)c(O)c1`, the melting point was in the range of 126 to 135 °C. Then `c1ccc2c(NC3CCCCC3)nnc(Cc3ccncc3)c2c1`, with 137 to 139 °C.

Compound `O=C1NC(=O)c2ccccc2C1=CNc1ccc(-c2ccccc2)cc1` displayed a melting point of 261 to 262 °C.

`Cc1ccc(S(=O)(=O)NCc2ccccc2CC(=O)O)cc1` came in with a melting point of 155 to 156 °C. Then `O=C(CC1(c2ccccc2)C(=O)Oc2ccc(Cl)cc21)N1CCN(c2ccc(C(F)(F)F)cn2)CC1` (stereo not given), with 228 °C. Then `N#CC1C(=O)c2ccccc2Nc2ccccc21` (stereo not given), with 195 to 197 °C; and `C=CCOC(=O)c1cccc(NC(=O)NCC(=O)Nc2ccccc2C(=O)c2ccc(OC)cc2)c1`, with 167 to 169 °C. The figure for `CCCCCCCNC(=O)N(C)c1cccc(-c2ccc(C=C(OC)C(=O)OC)cc2)c1` is 93 °C; for `Cc1ccccc1S(=O)(=O)NC(=O)c1csc(Cc2ccc3oc(-c4nc(C(C)(C)C)cs4)cc3c2)n1` it is 201 to 203 °C; for `COc1cc2c(cc1OC)C1(C3OCCO3)CNCC2O1` (stereo not given) it is 107 to 109 °C. Consider `O=C(Nc1ccccc1CS(=O)c1nccn1-c1ccccn1)c1ccccc1` (stereo not given), for which the melting point was in the range of 109 to 111 °C. The figure for `Cc1c(Br)c2c(c(C)c1NC(=O)CC(C)(C)C)C(c1ccc(C(C)C)cc1)CS2(=O)=O` (stereo not given) is 211 to 213 °C.

`O=[N+]([O-])C(Sc1ccc(Cl)cc1)=C1NCCN1Cc1ccc(Cl)nc1` registered a melting point of 159 to 161 °C. The figure for `Nc1cc(=O)n(Cc2cccc([N+](=O)[O-])c2)[nH]1` is 163 °C.

The compound `CN(C)C(=O)N(C)c1cc(C(C)(C)C)on1` yielded a melting point of 90 to 91 °C. Then `Cc1cn(-c2cc(C(=O)O)cc(C(F)(F)F)c2)cn1`, with more than 300 °C; and `CC(C)CC1(C(CCNC(=O)c2ccc(F)c(F)c2)C(=O)OC(C)(C)C)CCN(CCc2ccccc2)C1=O` (stereo not given), with 147 to 148 °C. Turning to `CCc1cccc(C)c1CNc1cc(C(=O)N(C)C)nc2c1nc(C)n2C`, the melting point was in the range of 133 to 136 °C. Then `O=C(c1ccccc1)N1C(=O)c2cccnc2Nc2ccccc21`, with 198 to 201 °C; and `CC12CCC3c4ccc(C(=O)O)cc4CCC3C1CCC2C(=O)c1ccco1` (stereo not given), with 180 to 182 °C; and `Cc1ccc(-c2cc(Br)c3c(c2)CCC(=O)N3)c(C)n1`, with 194 to 195 °C. In the case of `CCC(CC)N1C(=O)NCc2c1cc(C)nc2Oc1c(C)cc(C)cc1C`, the melting point was in the range of 197 to 199 °C. Compound `COC(=O)C1C=CCn2c(=O)n(CO)c(=O)n21` (stereo not given) registered a melting point of 123 to 125 °C. Take `Cn1cncc1COCC(O)c1ccc(OCc2ccccc2)cc1` (stereo not given): the melting point lay within 148 to 150 °C. Then `CC(C)(CO)CNc1nccc(-c2c(-c3ccc(F)cc3)nc3occn23)n1`, with 149 °C.

On to `CS(=O)(=O)NCc1cc(-c2ccccc2)c2c(n1)OCCN(Cc1cc(C(F)(F)F)cc(C(F)(F)F)c1)C2=O`, for which the melting point lay in the range of 194 to 195 °C. Then `COC(=O)c1ccc(OC)nc1F`, with 81 to 82 °C; and `CC[C@H](CC[N+](=O)[O-])C(=O)N[C@@H](Cc1ccccc1)C(=O)OC`, with 86.2 to 87.8 °C; and `Cc1onc2c1C(=O)N(C(C)(C)C)C2=O`, with 48 to 50 °C. Then `COc1ccc(-c2[nH]c(-c3ccc(NCCC(C)C)cc3)nc2C(=O)Nc2nccs2)cc1`, with 235 to 239 °C; and `CCCN(CCC)c1c([N+](=O)[O-])cc(C)c(C(C)C)c1[N+](=O)[O-]`, with 48.5 to 49 °C. Then `Cc1csc(=S)n1-c1ccc(F)cc1N`, with 138 °C; and `COc1cccc(-n2c(=O)oc3ccc(-c4ccc(F)cc4F)cc3c2=O)c1`, with 160 to 161 °C. As for `Cc1cc(C)cc(C(=O)NC(=S)Nc2c(O)cc(C)c(Br)c2C)c1`, the melting point was in the range of 164 to 166 °C. Then `O=C(O)c1ccc(CCc2n[nH]c3c2c(=O)n(-c2ccccc2)c2ncccc32)cc1`, with 318 to 320 °C; and `CCCCCCC(=N)NC(=S)Nc1ccc(Cl)c([N+](=O)[O-])c1`, with 92 to 94 °C. The figure for `CC12CCC(O)CC1=CC(O)C1C2CCC2(C)C(O)C(O)CC12` (stereo not given) is 217 to 221 °C.

In turn, `O=c1ccn(-c2cccc(C(F)(F)F)c2)nc1-c1ncnn1-c1ccccc1` came in with a melting point of 167 to 168 °C. Compound `CSc1cccc(NCC2CN(C(=O)Oc3ccccc3)CCO2)c1` (stereo not given) registered a melting point of 114 to 115 °C. The figure for `Fc1cccc(OC2CN(C(c3ccccc3)c3ccccc3)C2)c1` is 81 to 82 °C. Take `CN1CCN(C2=NC(=O)C(=Cc3cccc(-c4cc(F)c(O)c(C56CC7CC(CC(C7)C5)C6)c4)c3)S2)CC1`: the melting point is 226 to 228 °C. The figure for `Cn1nc(-c2cnc(N)nc2-c2cccs2)ccc1=O` is 270 °C; for `CC(=O)Nc1cccc(-c2ccc3nc(-c4cccnc4N)n(-c4ccc(CNC(=O)c5ccccc5)cc4)c3n2)c1` it is 205 to 208 °C. The figure for `[N-]=[N+]=N[C@H]1CC[C@@H](NC(=O)OCc2ccccc2)CC1` is 42 to 46 °C; for `C=CCC(C#N)(C#N)Cc1c(F)c(F)c(F)c(F)c1F` it is 78.2 °C. Regarding `Cn1c(=O)n(Cc2ccccc2)c(=O)c2cc(C(=O)OCc3ccccc3)sc21`, the melting point lay in the range of 143 to 145 °C. Then `COC(=O)Cc1ccc(OCCNC(=O)C2Cc3ccccc3N2S(=O)(=O)c2ccc(-c3cccc(C(F)(F)F)c3)cc2)cc1C` (stereo not given), with 53 to 57 °C; and `CCC(c1ccc(Nc2ccccc2)c2ccccc12)c1ccc(Nc2ccccc2)c2ccccc12`, with 115 °C; and `CCCCC1(CCCC)CCc2c(OCc3ccccc3C#N)cccc2C1O` (stereo not given), with 112 to 113 °C. `Cc1oc(-c2ccccc2)nc1CCOc1ccc(CCC(N)=O)cc1`: the melting point lay within 139 to 140 °C. Consider `OC(c1cnc2c(cnn2-c2ccccc2)c1)(c1c[nH]c2ncccc12)C(F)(F)F` (stereo not given), for which the melting point fell in the range of 137 to 141 °C. The figure for `C[C@H]1CCCC(C)(C)[C@@H]1[C@H](O)c1ccc(F)c(F)c1` is 43.3 to 45.8 °C; for `C=Cc1cn(S(=O)(=O)c2ccc(C)cc2)c2ccc(C#N)cc12` it is 134 to 135 °C.

In the case of `C=C1C(O)C(CO)OC1n1cc(CC)c(=O)[nH]c1=O` (stereo not given), the melting point was 137 to 139 °C. For the compound `CN1C[C@H](CCN2CCN(C(c3ccccc3)c3ccccc3)CC2)C[C@@H]2c3cccc4[nH]cc(c34)C[C@H]21`, the melting point fell in the range of 206 to 212 °C. `Cc1cc2c(cc1N1CCOCC1)OC(=O)C2C` (stereo not given) had a melting point of 108 to 109 °C. `Cc1ccc(O)c(Cn2c(NC3CCNC(CCN4CCOCC4)C3)nc3ccc(CCc4ccccc4)cc32)n1` (stereo not given): the melting point was found to be 159 °C.

In turn, `COc1ccc2c(CCNCC#N)c[nH]c2c1` came in with a melting point of 80 °C. The figure for `CCC1CC(=O)CC2CCC3C4CCC(OC(C)=O)C4(C)CCC3C12C` (stereo not given) is 159 °C; for `CCOc1cc(NC(C)=O)c(Cl)cc1C(=O)NCC1CN(Cc2ccc(F)cc2)CCO1` (stereo not given) it is 161 to 163 °C.
